Measurements published in ChEMBL document CHEMBL1150901, “Enhancement of NO production in activated macrophages in vivo by an antimalarial crude drug, Dichroa febrifuga” (J Nat Prod, 1998).
Active and inactive are the calls of the source. The rule behind the calls is not given here.

Tests used:
Macrophage [1] = experiment: […] of LPS-induced NO production in BCG-treated ICR mouse macrophages at 1 mg/kg/day, po administered for 3 days before BCG immunization measured after 24 hrs of LPS challenge by Griess reagent method; assay type: functional; parameters: scale not given: the % may be the effect or the level left
Macrophage [2] = experiment: Activation of NO production in BCG-treated ICR mouse macrophages at 1 mg/kg/day, po administered for 3 days before BCG immunization measured after 72 hrs of LPS challenge by Griess reagent method; assay type: functional, organism-based
[3] = Cytotoxicity against ICR mouse macrophages assessed as cell viability at 1 mg/kg/day after 72 hrs by MTT assay; assay type: organism-based, Macrophage; details: read-out: Activity
Mus musculus [4] = experiment: Toxicity in ICR mouse assessed as occurrence of diarrhea at 5 mg/kg/day, po; assay type: organism-based; parameters: route oral; details: in vivo
[5] = Cytotoxicity against LPS-stimulated ICR mouse macrophages assessed as cell viability at 1 mg/kg/day after 72 hrs of LPS challenge by MTT assay; assay type: organism-based, Macrophage; details: read-out: Activity
Macrophage [6] = experiment: Increase in LPS-induced NO production in ICR mouse at 1 mg/kg/day, po 0 to 2 days administered before BCG immunization measured after 24 hrs of LPS challenge by Griess reagent method; assay type: functional, organism-based
[7] = Activation of LPS-induced NO production in BCG-treated ICR mouse macrophages at 1 mg/kg/day, po administered for 3 days before BCG immunization measured after 72 hrs of LPS challenge by Griess reagent method; assay type: functional, organism-based; details: Macrophage
[8] = Activation of LPS-induced NO production in BCG-treated ICR mouse macrophages at 5 mg/kg/day, po administered for 3 days before BCG immunization measured after 24 hrs of LPS challenge by Griess reagent method; assay type: functional, organism-based; details: Macrophage
Mus musculus [9] = experiment: Antiinflammatory activity against po dosed ICR mouse assessed as number of peritoneal exudate cells; assay type: functional
Macrophage [10] = experiment: Increase in LPS-induced NO production in ICR mouse at 1 mg/kg/day, po 0 to 2 days administered after BCG immunization measured after 24 hrs of LPS challenge by Griess reagent method; assay type: functional, organism-based
[11] = Activation of LPS-induced NO production in BCG-treated ICR mouse macrophages at 50 to 1000 mg/kg/day, po administered for 3 days before BCG immunization measured after 24 hrs of LPS challenge by Griess reagent method; assay type: functional, organism-based; details: Macrophage

## C[C@@H]1CC[C@H]2[C@@H](C)C(=O)O[C@@H]3O[C@@]4(C)CC[C@@H]1[C@]32OO4 [ARTEMISININ]
Macrophage [1]
  Activity: 23%

## O=C(C[C@@H]1NCCC[C@H]1O)Cn1cnc2ccccc2c1=O [FEBRIFUGINE]
Macrophage [2]
  Activity: inactive
[3]
  viability at 72 h: > 90%
Mus musculus [4]
  Activity: Not Active
[5]
  viability at 72 h: 10%
Macrophage [6]
  Activity: Active
[7]
  Activity: Active
[8]
  Activity: inactive
Mus musculus [9]
  Activity: 378000000
Macrophage [10]
  Activity: Active
[11]
  Activity: Dose-dependent effect
